Two molecules from US20260345771A1, “THERAPY COMPRISING ANTI-CD19 ANTIBODY AND EZH2 MODULATORS” (Incyte Corporation, priority 2022, published 2026) can be followed below.

For experiment [1], the system named is SU-DHL-4 cells. The experiment is described as follows: CellTiter-Glo (CTG) viability assay, SU-DHL-4. It is filed as cell-based. As to conditions: Homo sapiens, SU-DHL-4, 168 h. How it is done: (§1) A panel of 6 lymphoma cell lines was included in the analysis (5 DLBCL and 1 Burkitt lymphoma). All cell lines were cultured in RPMI 1640 medium (Gibco) supplemented with 10%-20% FCS (Sigma) at 37 °C in 5% CO2.
(§2) To analyze direct cytotoxic and anti-proliferative effects on target cells, cell viability assays were performed using the CellTiter-Glo Kit (Promega), a luminescence assay for determination of viable cell number based on quantification of adenosine triphosphate (ATP) levels. […] Cell densities were adjusted at days 3 and 7 during the assay to avoid overgrowth. The assay was performed in clear 48- and 96-F-well bottom plates in a final volume of 1 mL or 200 μL, respectively, in a cell incubator at 37 °C and 5% CO2. In each experiment, all test conditions were performed in triplicates.
(§3) Cell viability was analyzed according to the manufacturer's protocol using the Tecan Infinite F500 plate reader. The relative viable cell count was calculated from the measured relative luminescence units (RLU) with the following equation: […]
(§4) For graphical illustration and IC50 determination, the mean values of triplicates (viability assay) or duplicates (CD19 expression) of the individual experiments were imported into GraphPad Prism software (version 8). […] IC50 curves were determined applying a non-linear regression curve fit model (sigmoidal dose response, variable slope).
(In general: Cellular ATP, detected with luciferase, serves as a proxy for viable cell number.)

Experiment [2] has as its system SU-DHL-6 cells. Description: CellTiter-Glo (CTG) viability assay, SU-DHL-6. As to conditions: Homo sapiens, 168 h; SU-DHL-6, 7 days, compound alone. Type of experiment: cell-based. As for the experimental part:
as §1, §2, §3, §4

Experiment [3] concerns WSU-DLCL2 tumor. The experiment is described as follows: Tumor growth in WSU-DLCL2 tumor bearing CB17-SCID mice. Type of experiment: in vivo. How it is done:
The in vivo study was carried out in WSU-DLCL2 tumor bearing CB17-SCID mice. 4×10^6 WSU-DLCL2 cells (DLBCL cell line) per animal were implanted with matrigel (1:1) s.c. into the left flank of 6-8 weeks old female CB17-SCID mice. On study day 17, when a mean tumor volume of approximately 100 mm^3 was reached, animals were randomly allocated into treatment groups with 8 mice per group and treatment was started. Treatment was applied every day p.o. at 35 mg/kg or 50 mg/kg for Compound 1 (application volume: 10 mL/kg; formulation buffer: 20% propylene glycol, 10% Solutol HS15, 70% phthalate buffer) and biweekly i.v. at 3 mg/kg or 10 mg/kg for tafasitamab (application volume: 5 mL/kg; formulation buffer: PBS). Tumor volume and body weight were measured twice weekly. Mice were sacrificed when reaching a tumor volume >1500 mm^3 or latest at study end on day 69 after tumor cell implantation. Mean tumor growth curves were calculated using GraphPad Prism software (version 8.4.3).
The proof of concept in vivo study was performed in WSU-DLCL2 tumor bearing CB17-SCID mice.

Take `COC1CN([C@H]2CC[C@H]([C@@]3(C)Oc4c(Cl)cc(C(=O)NCc5c(SC)cc(C)[nH]c5=O)c(C)c4O3)CC2)C1` [Compound 1]: the figures for the IC50 in experiment [1] and in experiment [2] were 0.0171 µM and 0.0038 µM, respectively.

B1: tafasitamab: humanized monoclonal antibody that targets the antigen CD19, engineered in the IgG Fc-region to enhance ADCC (antibody, chains of the INN, looked up)
heavy: EVQLVESGGGLVKPGGSLKLSCAASGYTFTSYVMHWVRQAPGKGLEWIGYINPYNDGTKYNEKFQGRVTISSDKSISTAYMELSSLRSEDTAMYYCARGTYYYGTRVFDYWGQGTLVTVSSASTKGPSVFPLAPSSKSTSGGTAALGCLVKDYFPEPVTVSWNSGALTSGVHTFPAVLQSSGLYSLSSVVTVPSSSLGTQTYICNVNHKPSNTKVDKKVEPKSCDKTHTCPPCPAPELLGGPDVFLFPPKPKDTLMISRTPEVTCVVVDVSHEDPEVQFNWYVDGVEVHNAKTKPREEQFNSTFRVVSVLTVVHQDWLNGKEYKCKVSNKALPAPEEKTISKTKGQPREPQVYTLPPSREEMTKNQVSLTCLVKGFYPSDIAVEWESNGQPENNYKTTPPMLDSDGSFFLYSKLTVDKSRWQQGNVFSCSVMHEALHNHYTQKSLSLSPG
light: DIVMTQSPATLSLSPGERATLSCRSSKSLQNVNGNTYLYWFQQKPGQSPQLLIYRMSNLNSGVPDRFSGSGSGTEFTLTISSLEPEDFAVYYCMQHLEYPITFGAGTKLEIKRTVAAPSVFIFPPSDEQLKSGTASVVCLLNNFYPREAKVQWKVDNALQSGNSQESVTEQDSKDSTYSLSSTLTLSKADYEKHKVYACEVTHQGLSSPVTKSFNRGEC
Consider B1, for which the tumor growth inhibition entry in experiment [3] (monotherapy 3 mg/kg i.v. BIW) and in experiment [3] (monotherapy 10 mg/kg i.v. BIW) was “did not reveal any tumor growth inhibition” throughout.
